Format in all cases: cell-based
Data set [1] has as its system Klebsiella pneumoniae SSI #3010. The conditions noted are these: SSI #3010. The essentials: (§1)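 Antibacterial activity is measured as MIC (μg/mL) by standard CLSI microdilution. Inocula of about 10^6 CFU/mL in MH-II broth meet two-fold peptide dilutions in medium with 0.002% Polysorbate 80, and growth is scored visually after 18-20 hours at 35° C.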
Data set [2] concerns Acinetobacter baumannii DSM 30008. Particulars: DSM 30008. The essentials: as §1
The next data set concerns Escherichia coli 926415. The conditions noted are these: 926415.
For data set [3], the system named is Klebsiella pneumoniae 968733. The conditions noted are these: 968733.
The test system of data set [4] is Pseudomonas aeruginosa ATCC 27853. The conditions noted are these: ATCC 27853. The essentials: as §1
For data set [5], the system named is Acinetobacter baumannii 872842. The conditions noted are these: 872842.
Data set [6] relates to Escherichia coli ATCC 25922. Particulars: ATCC 25922. The essentials: as §1
The test system of data set [7] is human red blood cells (hRBC). As to the kind of experiment: Hemolysis of human red blood cells. Particulars: red cells of human, 1 h. In a few lines: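 Percent hemolysis = OD540 of peptide-treated supernatant relative to the 2.5% Triton X-100 (100%) control, PBS containing 0.001% acetic acid defining 0%. Peptides tested at 100 μg/mL against 20% (v/v) washed human RBC, 1 h, 37 °C, 300 rpm.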

Structures are written as SMILES. Where a SMILES comes first, the peptide text is derived from it. Bridges are numbered along the chain shown (N, C = ends). [ ]: non-standard residue; d: D form. The star is where a group is joined. NαAmidinoTrp = N=C(N)N[C@@H](Cc1c[nH]c2ccccc12)C(=O)*; NMeW = CN[C@@H](Cc1c[nH]c2ccccc12)C(=O)O; Hyp = O=C(O)[C@@H]1C[C@@H](O)CN1; Pen = CC(C)(S)[C@H](N)C(=O)O; Tle = CC(C)(C)[C@H](N)C(=O)O; Dab = NCC[C@H](N)C(=O)O; dAze = O=C(O)[C@H]1CCN1; Sar = CNCC(=O)O

Regarding `CC(C)C[C@@H]1NC(=O)[C@@H](CC(C)C)NC(=O)[C@H](CCN)NC(=O)[C@@H](NC(=O)[C@H](CCN)NC(=O)[C@@H](NC(=O)[C@H](CCN)NC(=O)CNC(=O)[C@H]2NC(=O)[C@H](Cc3ccc(O)cc3)NC(=O)[C@H](CO)NC(=O)[C@H](CC(C)C)NC(=O)[C@@H]3CCCN3C(=O)[C@H]3CCCN3C(=O)[C@H](CO)NC(=O)[C@H](C)NC(=O)[C@H](C(C)C)NC(=O)[C@@H](NC(=O)[C@H](Cc3c[nH]c4ccccc34)NC(=N)N)CSSC2(C)C)[C@@H](C)O)CCNC(=O)[C@H]([C@@H](C)O)NC(=O)[C@H](CCN)NC(=O)[C@H](CCN)NC1=O` [Ex. 173] (NαAmidinoTrp-CVAS[dP]PLSY[Pen]G[Dab]T[Dab][Dab][Dab][dL]L[Dab][Dab]T; disulfide 1-10; lactam 15-C), the “Klebsiella pneumoniae SSI #3010 MIC” value in data set [1] is 0.125 µg/mL. Besides, the “Acinetobacter baumannii DSM 30008 MIC” value in data set [2] amounted to 0.125 µg/mL. Besides, in the data set with Escherichia coli 926415, the “Escherichia coli 926415 MIC” value came out at 0.5 µg/mL. In addition, the “Klebsiella pneumoniae 968733 MIC” value in data set [3] came out at 1 µg/mL. Moreover, the “Pseudomonas aeruginosa ATCC 27853 MIC” value in data set [4] was determined as 0.5 µg/mL. The “Acinetobacter baumannii 872842 MIC” value in data set [5] was 0.25 µg/mL. In addition, the “Escherichia coli ATCC 25922 MIC” value in data set [6] worked out at 0.125 µg/mL. Also, the “Hemolysis at 100 μg/mL” value in data set [7] (100 μg/mL) is 1%.

Take `CN[C@@H](Cc1c[nH]c2ccccc12)C(=O)N[C@H]1CSSC[C@@H](C(=O)N(C)CC(=O)N[C@@H](CCN)C(=O)N[C@H](C(=O)N[C@@H](CCN)C(=O)N[C@H]2CCNC(=O)[C@H]([C@@H](C)O)NC(=O)[C@H](CCN)NC(=O)[C@H](CCN)NC(=O)[C@H](CC(C)C)NC(=O)[C@@H](CC(C)C)NC(=O)[C@H](CCN)NC2=O)[C@@H](C)O)NC(=O)[C@H](Cc2ccc(O)cc2)NC(=O)[C@H]([C@@H](C)O)NC(=O)[C@H](C(C)C)NC(=O)[C@@H]2C[C@@H](O)CN2C(=O)[C@@H](C)NC(=O)[C@H]([C@@H](C)O)NC(=O)[C@H](C)NC(=O)[C@H](C(C)C)NC1=O` [Ex. 175] (H-[NMeW]CVAT[dA][Hyp]VTYC[Sar][Dab]T[Dab][Dab][Dab][dL]L[Dab][Dab]T; disulfide 2-11; lactam 16-C): the “Klebsiella pneumoniae SSI #3010 MIC” value in data set [1] worked out at 0.0625 µg/mL. Besides, the “Acinetobacter baumannii DSM 30008 MIC” value in data set [2] came out at 0.0625 µg/mL. The “Escherichia coli 926415 MIC” value in the data set on Escherichia coli 926415 is 0.5 µg/mL. For the same compound, in data set [3], the “Klebsiella pneumoniae 968733 MIC” value was determined as 0.5 µg/mL. Moreover, in data set [4], the “Pseudomonas aeruginosa ATCC 27853 MIC” value is 0.25 µg/mL. Besides, in data set [5], the “Acinetobacter baumannii 872842 MIC” value is 1 µg/mL. The “Escherichia coli ATCC 25922 MIC” value in data set [6] is 0.0625 µg/mL. In addition, the “Hemolysis at 100 μg/mL” value in data set [7] (100 μg/mL) is reported as below 1%.

As to `CN[C@@H](Cc1c[nH]c2ccccc12)C(=O)N[C@@H](CCN)C(=O)N[C@H](C(=O)N[C@H]1CC(=O)NCC[C@@H](C(=O)N[C@@H](Cc2ccc(O)cc2)C(=O)N[C@@H](CCN)C(=O)N(C)CC(=O)N[C@@H](CCN)C(=O)N[C@H](C(=O)N[C@@H](CCN)C(=O)N[C@H]2CCNC(=O)[C@H]([C@@H](C)O)NC(=O)[C@H](CCN)NC(=O)[C@H](CCN)NC(=O)[C@H](CC(C)C)NC(=O)[C@@H](CC(C)C)NC(=O)[C@H](CCN)NC2=O)[C@@H](C)O)NC(=O)[C@H](C(C)C)NC(=O)[C@@H]2CCCN2C(=O)[C@H]2CCN2C(=O)[C@H]([C@@H](C)O)NC1=O)C(C)(C)C` [Ex. 176] (H-[NMeW][Dab][Tle]DT[dAze]PV[Dab]Y[Dab][Sar][Dab]T[Dab][Dab][Dab][dL]L[Dab][Dab]T; lactam 4-9, 16-C), the “Klebsiella pneumoniae SSI #3010 MIC” value in data set [1] was 0.0625 µg/mL. For the same compound, the “Acinetobacter baumannii DSM 30008 MIC” value in data set [2] came to 0.03125 µg/mL. Moreover, the “Escherichia coli 926415 MIC” value in the data set with Escherichia coli 926415 was found to be 0.0625 µg/mL. Moreover, in data set [3], the “Klebsiella pneumoniae 968733 MIC” value was 0.25 µg/mL. For the same compound, the “Pseudomonas aeruginosa ATCC 27853 MIC” value in data set [4] was found to be 0.25 µg/mL. In addition, in data set [5], the “Acinetobacter baumannii 872842 MIC” value amounted to 0.5 µg/mL. For the same compound, the “Escherichia coli ATCC 25922 MIC” value in data set [6] stood at 0.03125 µg/mL. Besides, the “Hemolysis at 100 μg/mL” value in data set [7] (100) is below 1%.

These data come from patent publication US10829520B2, “Beta-hairpin peptidomimetics” (POLYPHOR AG, priority 2015, dated 2020).
